Test systems include LOX IMVI melanoma; SK-MEL-28 melanoma; SK-MEL-5 melanoma; OVCAR-4 ovarian; U251 CNS; A498 renal; HCC-2998 colon; HL-60(TB) leukemia; TK-10 renal; SNB-19 CNS.
What all share (experiment): NCI anticancer screen, dose series, 48 h

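Assay format: 96-well plates, 48-hour exposure. GI50 marks 50% less growth. TGI: concentration producing complete growth inhibition.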

For the compound `O=c1c2c3c(sc2nc2n1N=C(c1ccc([N+](=O)[O-])cc1)CS2)CCCC3`, the TGI in the test with LOX IMVI melanoma, in the test on SK-MEL-28 melanoma, in the test on SK-MEL-5 melanoma, with OVCAR-4 ovarian, in the test with U251 CNS and in the test on A498 renal was above 100 µM in each case. The TGI in the test with HCC-2998 colon, in the test with HL-60(TB) leukemia and in the test with TK-10 renal was above 100 µM in each case.
Regarding `CCCCS(=O)CC(CO)NC(=O)/C=C/c1c(C)[nH]c(=O)[nH]c1=O` (configuration not stated), the TGI was 40.9 µM in the test with LOX IMVI melanoma; 44.5 µM in the test on SK-MEL-28 melanoma; 21.5 µM in the test with SK-MEL-5 melanoma; 24.8 µM in the test on SNB-19 CNS; 26.4 µM in the test on OVCAR-4 ovarian; 26.7 µM in the test with U251 CNS. The figures for the TGI with A498 renal, in the test with HCC-2998 colon and in the test on HL-60(TB) leukemia were 32.5 µM, 30 µM and 21.5 µM, respectively.
`Nc1ccc(OCCCc2c(-c3ccccc3)nc(N)[nH]c2=O)cc1`: the TGI with LOX IMVI melanoma, in the test with SK-MEL-28 melanoma, in the test with SK-MEL-5 melanoma, with SNB-19 CNS, in the test on OVCAR-4 ovarian and in the test on U251 CNS was above 100 µM each time. For the same compound, the TGI with A498 renal, in the test with HCC-2998 colon and with HL-60(TB) leukemia was above 100 µM throughout.
On to `O=C1CSC(C(N=Nc2ccc(Cl)cc2)c2nc3ccccc3[nH]2)=N1` (configuration not stated), for which the TGI in the test on SK-MEL-28 melanoma is 92.2 µM; with SK-MEL-5 melanoma, 88.4 µM; with SNB-19 CNS, above 100 µM; in the test with OVCAR-4 ovarian, above 100 µM; with U251 CNS it was above 100 µM; with A498 renal, above 100 µM. Further, the TGI in the test with HCC-2998 colon, in the test on HL-60(TB) leukemia and in the test with TK-10 renal was above 100 µM throughout.
Turning to `CC1=C/C(=C2/N=C(N(C)C)SS2)C(C)=N1`, the TGI in the test with LOX IMVI melanoma, in the test on SK-MEL-28 melanoma, in the test with SNB-19 CNS, with OVCAR-4 ovarian, in the test on U251 CNS and with A498 renal was above 100 µM throughout. For the same compound, the TGI in the test on HCC-2998 colon, with HL-60(TB) leukemia and with TK-10 renal was above 100 µM in each case.
As for `Cc1cccc(C(=O)O)c1CC1NCCC2c3ccccc3NC12` (configuration not stated), the TGI in the test on LOX IMVI melanoma, in the test on SK-MEL-28 melanoma, in the test on SK-MEL-5 melanoma, in the test on SNB-19 CNS, with OVCAR-4 ovarian and in the test with U251 CNS was above 100 µM each time. The TGI in the test with A498 renal, in the test on HCC-2998 colon, with HL-60(TB) leukemia and in the test with TK-10 renal was above 100 µM throughout.
As to `Cc1nc2cccc([N+](=O)[O-])c2n1CCCN(C)C`, the TGI with LOX IMVI melanoma, in the test with SK-MEL-28 melanoma, in the test on SK-MEL-5 melanoma, with SNB-19 CNS, in the test with OVCAR-4 ovarian and in the test on U251 CNS was above 100 µM in each case. The TGI in the test on A498 renal, with HCC-2998 colon, in the test on HL-60(TB) leukemia and in the test on TK-10 renal was above 100 µM throughout.
As to `C[N+](C)(C)C(C1=CCCC1=O)c1ccccc1` (configuration not stated), the TGI was 38.3 µM in the test with LOX IMVI melanoma; above 100 µM with SK-MEL-28 melanoma; above 100 µM in the test with SK-MEL-5 melanoma; above 100 µM in the test on SNB-19 CNS; above 100 µM in the test with OVCAR-4 ovarian; 42.7 µM in the test on U251 CNS. Besides, the TGI in the test with A498 renal was above 100 µM; with HL-60(TB) leukemia, 66.5 µM; in the test with TK-10 renal, above 100 µM.
As to `CNc1nc2c(C)ccc3[nH]c(N(C)C)nc3c-2n1`, the TGI is above 100 µM in the test on LOX IMVI melanoma; above 100 µM with SK-MEL-28 melanoma; 50.3 µM in the test on SK-MEL-5 melanoma; 65 µM in the test with SNB-19 CNS; 80.9 µM in the test with OVCAR-4 ovarian; above 100 µM with U251 CNS. Further, the TGI in the test with A498 renal is above 100 µM; with HCC-2998 colon it was above 100 µM; in the test with HL-60(TB) leukemia, 69.5 µM; with TK-10 renal, above 100 µM.
Consider `CN=C(NC)N(C)c1nc(=[N+](C)C)ss1`, for which the TGI in the test with LOX IMVI melanoma, with SK-MEL-28 melanoma, in the test with SK-MEL-5 melanoma, in the test with SNB-19 CNS, in the test with U251 CNS and in the test with A498 renal was above 100 µM each time. Also, the TGI in the test with HCC-2998 colon, in the test with HL-60(TB) leukemia and with TK-10 renal was above 100 µM throughout.
As for `Cc1cc2c(C(C)C)c(O)c(O)c(C=Nc3ccccc3)c2c(O)c1-c1c(C)cc2c(C(C)C)c(O)c(O)c(C=Nc3ccccc3)c2c1O`, the TGI with LOX IMVI melanoma, in the test on SK-MEL-28 melanoma, with SNB-19 CNS, with OVCAR-4 ovarian, in the test on HCC-2998 colon and in the test on HL-60(TB) leukemia was above 100 µM throughout. The same compound registered a TGI in the test with TK-10 renal above 100 µM.
With `O=C1CCCN1CCCN=c1cc2n(-c3ccc(Cl)cc3)c3ccccc3nc-2cc1Nc1ccc(Cl)cc1`, the TGI in the test with LOX IMVI melanoma is 28.2 µM; with SK-MEL-28 melanoma, 47.5 µM; with SK-MEL-5 melanoma, 19 µM; in the test on SNB-19 CNS, 98.8 µM; in the test on OVCAR-4 ovarian, 21.8 µM; with U251 CNS, 54.2 µM. Also, the values for the TGI with A498 renal, in the test on HCC-2998 colon and in the test on HL-60(TB) leukemia were 43.2 µM, 18.1 µM and 15.8 µM, respectively.
Turning to `CCc1c(C)c2ccc(OCC(=O)N=Nc3c(O)[nH]c4ccccc34)c(C)c2oc1=O`, the GI50 in the test with LOX IMVI melanoma is 832 nM; with SK-MEL-5 melanoma, 1060 nM; in the test with OVCAR-4 ovarian it was 0.788 µM; in the test on A498 renal, above 33.3 µM; with TK-10 renal it was above 33300 nM. The TGI with LOX IMVI melanoma is above 7.31 µM; in the test on SK-MEL-5 melanoma, above 33.3 µM; with OVCAR-4 ovarian it was 1.86 µM; in the test with A498 renal, above 33.3 µM; with TK-10 renal, above 33.3 µM.
Take `COC(=O)C1C(O)C(C)C(O)OC1C(C)C(O)C(C)/C=C\C=C(/C)C(=O)Nc1c(C)c(OC(C)=O)c2c(c1O)C(=O)C(C)=C1OCOC(/C(C)=C/C(C)=O)=C12` (configuration not stated): the TGI in the test on LOX IMVI melanoma worked out at 26.6 µM; in the test on SK-MEL-28 melanoma, 4.96 µM; with SK-MEL-5 melanoma it was 23.5 µM; in the test with SNB-19 CNS, 30.9 µM; in the test with OVCAR-4 ovarian, 23 µM; in the test on U251 CNS it was 27.7 µM. Further, the TGI in the test on A498 renal was 30.6 µM; in the test on HCC-2998 colon it was 26.3 µM; with HL-60(TB) leukemia it was 15.3 µM.
In the case of `CC(C)[C@](O)(C(=O)OCC1=CCN2CC[C@@H](O)[C@@H]12)[C@H](C)O`, the TGI in the test with LOX IMVI melanoma is above 174 µM; in the test on SK-MEL-28 melanoma it was above 375 µM; with SK-MEL-5 melanoma it was above 80.8 µM; in the test with SNB-19 CNS, above 375 µM; with OVCAR-4 ovarian, above 375 µM; in the test with U251 CNS, above 375 µM. In addition, the TGI in the test on A498 renal, in the test on HCC-2998 colon and with HL-60(TB) leukemia was above 375 µM each time.
`C[C@]12CCc3sc(-c4cccc(F)c4)nc3C1=CC[C@@H]1[C@@H]2CC[C@]2(C)C(=O)CC[C@@H]12`: the GI50 with LOX IMVI melanoma was 1740 nM; in the test with SK-MEL-28 melanoma, 1530 nM; with SK-MEL-5 melanoma, 4050 nM; in the test on SNB-19 CNS it was 4.79 µM; in the test with OVCAR-4 ovarian, 5.51 µM; with U251 CNS, 2000 nM. Besides, the GI50 with A498 renal is 3.2 µM; with HCC-2998 colon, 3.19 µM; with HL-60(TB) leukemia it was 2000 nM; in the test with TK-10 renal, 2770 nM. The TGI with LOX IMVI melanoma is 3.36 µM; in the test on SK-MEL-28 melanoma, 4.07 µM; in the test with SK-MEL-5 melanoma, 16.9 µM; in the test with SNB-19 CNS, above 100 µM; in the test with OVCAR-4 ovarian, above 100 µM; in the test with U251 CNS it was 13.6 µM. The TGI was 17.9 µM in the test on A498 renal, above 100 µM in the test with HCC-2998 colon, 5.35 µM in the test on HL-60(TB) leukemia and 8.29 µM with TK-10 renal.
For `CCN(CC)CCNC(=O)c1nn(-c2ccc(Cl)cc2)c2c1CCc1cc(OC)ccc1-2`, the TGI in the test on LOX IMVI melanoma was 4.11 µM; in the test on SK-MEL-28 melanoma it was 4.23 µM; in the test with SK-MEL-5 melanoma, 3.17 µM; with SNB-19 CNS, 23.2 µM; in the test on OVCAR-4 ovarian, 21.9 µM; in the test on U251 CNS it was 17.8 µM. For the same compound, the TGI with A498 renal is 21.9 µM; with HCC-2998 colon it was 5.52 µM; in the test on HL-60(TB) leukemia, 14.5 µM; in the test with TK-10 renal it was 23.8 µM.

Source of the values: PubChem BioAssay (NCI).
